Entries after “also recorded” stand apart in the source; their conditions may differ. Like-named read-outs stand apart in the source and are kept apart here.
How the values were obtained:
[1] = molecular target: ubiquitin C-terminal hydrolase L3; conditions: read-out: reported IC50 for ubiquitin C-terminal hydrolase L3; cited from earlier work
PLpro from SARS-CoV-2 [2] = molecular target: T1, PLpro from SARS-CoV-2 (Severe acute respiratory syndrome coronavirus 2, UniProt P0DTD1); type: biochemical; conditions: for IC50: read-out: IC50 (µM) determined using Ub-AMC as a PLpro substrate, 20 nM PLpro, 5 μM Ub-AMC, triplicates; for Extent of PLpro inhibition in IC50 assay (in words): 5 μM Ub-AMC substrate
PLpro from SARS-CoV-2 [3] = molecular target: T1, PLpro from SARS-CoV-2; type: biochemical
PLpro from SARS-CoV-2 [4] = molecular target: T1, PLpro from SARS-CoV-2; type: biochemical; conditions: for IC50: read-out: IC50 (µM) determined using Z-LRGG-AMC as a PLpro substrate
[5] = 20 nM PLpro, 50 μM Z-LRGG-AMC, triplicates
[6] = 200 μM inhibitor, 20 nM PLpro, 50 μM Z-LRGG-AMC
[7] = Z-LRGG-AMC substrate, highest tested concentration 200 μM

Row | Compound | IC50 (PLpro from SARS-CoV-2 [4]; [5]) [µM] | PLpro inhibition in initial screening (PLpro from SARS-CoV-2 [3]; [6]) | other results
1 | O=C1CC(=O)c2c(Cl)c(Cl)c(Cl)c(Cl)c21 [TCID] | – | – | IC50 [1]: 0.6 µM; IC50 (PLpro from SARS-CoV-2 [2]): 10.5 ± 2.7 µM; PLpro inhibition in initial screening (PLpro from SARS-CoV-2 [3]): inhibited PLpro activity almost completely; Extent of PLpro inhibition in IC50 characterization (in words) (PLpro from SARS-CoV-2 [4]): can fully inhibit PLpro at 200 µM
2 | C=CC(=O)N1CC/C(=C\c2ccc(F)c([N+](=O)[O-])c2)C(=O)/C(=C/c2ccc(F)c([N+](=O)[O-])c2)C1 [VLX1570] | > 100 | – | –
3 | Cc1ccc(/C=C2\CNC/C(=C\c3ccc(C)cc3)C2=O)cc1 [NSC63283] | > 100 | – | –
4 | O=C1c2ccccc2C(=O)c2oc(-c3ccccc3)nc21 [SJB2–043] | – | inhibited PLpro partially but at significant levels | Extent of PLpro inhibition in IC50 assay (in words) (PLpro from SARS-CoV-2 [2]): did not inhibit PLpro completely; IC50 (PLpro from SARS-CoV-2 [2]): 0.091 ± 0.024 µM; Extent of PLpro inhibition in IC50 characterization (in words) (PLpro from SARS-CoV-2 [4]; [7]): only partial inhibition of PLpro; Extent of PLpro inhibition in IC50 characterization (in words) (PLpro from SARS-CoV-2 [4]; Z-LRGG-AMC substrate, highest tested concentration 200 μM, listed as SBJ2–043): can only partially inhibit PLpro
5 | N#Cc1nc2c(nc1C#N)-c1ccccc1/C2=N\OCc1ccccc1 [DUB-IN-1] | > 100 | – | –
6 | O=C1c2ccccc2C(=O)c2oc(-c3cccnc3)nc21 [SJB3–019A] | 8.15 ± 3.59 | inhibited PLpro partially but at significant levels | Extent of PLpro inhibition in IC50 characterization (in words) (PLpro from SARS-CoV-2 [4]; [7]): only partial inhibition of PLpro
7 | CC(=O)O/N=C1\C(=O)N(Cc2cc(Cl)ccc2Cl)c2ccc(Cl)cc21 [LDN-57444] | > 100 | inhibited PLpro partially but at significant levels | –
8 | CC(=O)c1cc([N+](=O)[O-])c(Sc2cccc(Cl)c2Cl)s1 [P005091] | > 100 | inhibited PLpro partially but at significant levels | –
9 | N#CSc1cc(SC#N)c(N)nc1N [PR-619] | – | significant quenching effects leading to negative signals | IC50 (PLpro from SARS-CoV-2 [2]): 12.9 ± 2.4 µM; Extent of PLpro inhibition in IC50 characterization (in words) (PLpro from SARS-CoV-2 [4]; [7]): strongly inhibited PLpro at concentrations above 1 μM; also recorded: can fully inhibit PLpro at 200 µM
10 | C=CCO/N=C1\c2ccccc2-c2nc(C#N)c(C#N)nc21 [DUB-IN-3] | – | – | Extent of PLpro inhibition in IC50 assay (in words) (PLpro from SARS-CoV-2 [2]): simple inhibition curve that did not reach its plateau at the highest inhibitor concentration; IC50 (PLpro from SARS-CoV-2 [2]): > 10 µM; Extent of PLpro inhibition in IC50 characterization (in words) (PLpro from SARS-CoV-2 [4]): only partial inhibition of PLpro
11 | CCO/N=C1\c2ccccc2-c2nc(C#N)c(C#N)nc21 [DUB-IN-2] | – | – | IC50 (PLpro from SARS-CoV-2 [4]): > 100 µM
12 | CC(=O)c1cc([N+](=O)[O-])c(Sc2ccc(F)cc2F)s1 [P22077] | > 100 | inhibited PLpro partially but at significant levels | –
13 | HBX19818 | > 100 | inhibited PLpro partially but at significant levels | –
14 | Cc1ccc(S(=O)(=O)Nc2cc(C(F)(F)F)ccc2C(=O)Nc2nc(-c3ccccc3)cs2)cc1 [ML364] | – | significant quenching effects leading to negative signals | Extent of PLpro inhibition in IC50 characterization (in words) (PLpro from SARS-CoV-2 [4]; [7]): did not show strong concentration-dependent inhibition of PLpro
